Values quoted from earlier work as cited in patent US12295916B2, “Process for making aqueous therapeutic particle having stable exterior water clustering with nanosized thickness” (priority 2019, dated 2025).

Conditions: given by injection

For CNC1(c2ccccc2Cl)CCCCC1=O (centres unmarked) [Ketamine], the duration of effects is given as ≤ 25 min and the “time to begin of effects” value is given as “five”.
